Assay results: patent US4227002A, “Halo-A-23187 derivatives” (Eli Lilly and Company, priority 1978, dated 1980)
Entries after “also recorded” stand apart in the source; their conditions may differ.

Tests used:
[1] = system: mice; assay: acute toxicity in mice, intraperitoneal; assay type: in vivo; conditions: intraperitoneally
Procedure: (§1) The compounds of the present invention are, in general, less toxic than the parent antibiotic. Table II summarizes the acute toxicities of representative compounds in mice, expressed as LD50, when the compounds are administered intraperitoneally.

[2] = system: Staphylococcus aureus (H-Heatley strain, NRRL B-314); assay: antibacterial bioassay (J. E. Westhead); assay type: cell-based
Source text: The compounds of this invention are useful antibacterial agents. In this aspect, these compounds may be used in the same manner in which the parent antibiotic is used, as described in U.S. Pat. No. 3,923,823. A bioassay for the antibacterial activity of A-23187 has been described by J. E. Westhead in Antimicrobial Agents and Chemotherapy 11 (5), 916-918 (1977). The test organism for this bioassay is Staphylococcus aureus (H-Heatley strain, NRRL B-314).

[3] = biological target: cation transport ATPase in liver mitochondria; assay: inhibition of cation transport ATPase in liver mitochondria, in vitro; assay type: biochemical
Source text: In yet another aspect, the compounds of this invention are active as inhibitors of the enzyme ATPase. ATPase, an alkali-metal-sensitive enzyme found in cell membranes, is involved in the energy necessary for active transport. "Active transport" refers to the energy-requiring series of operations whereby intracellular and extracellular fluids maintain their compositions. Inhibitors of ATPase reduce the energy required for active transport. Table V summarizes the results of in vitro tests measuring inhibition of cation transport ATPase in liver mitochondria [measured as half effective concentration (Ic 50) in mcg/ml].

[4] = acute toxicity in mice, intraperitoneal; assay type: in vivo; conditions: mouse, in vivo, ip, intraperitoneally
Procedure: as §1

[5] = system: mammalian sperm; conditions: cited from earlier work
[6] = system: Bovine Sperum; conditions: bovine sperm; untreated: 2
[7] = system: bovine spermatozoa; assay: Ca^++ influx induced in bovine spermatozoa, inhibition by Mg^++; assay type: cell-based; conditions: for Ca^++ Influx: bovine spermatozoa
Source text: The compounds of this invention affect ion transport with altered selectivities compared to the parent compound.

[8] = system: mammalian sperm; conditions: cited from earlier work; remark: listed apart in the source
[9] = cited from earlier work
[10] = system: Cuinea Pig Sperm; assay: effect on acrosome reaction, guinea pig sperm; assay type: cell-based; conditions: untreated: 110
Source text: Table IV summarizes the effect of an illustrative compound of this invention on mammalian sperm motility and acrosome reaction.

[11] = system: isolated guinea-pig atria; assay: cardiac contractility in isolated guinea-pig atria; conditions: 10^-5 molar
Source text: The compounds of this invention are also potential cardiotonic agents. […] Response to this test is expressed as a percentage of the maximal contractile tension that could be elicited by a challenge dose of norepinephrine (10^-4 M). For a more detailed description of this test, see U.S. Pat. No. 3,985,893. In this test, 4-bromo-A-23187 free acid and its Mg^++ salt, each at a 10^-5 molar concentration, produced mean increases in contractile tension of 48 and 59 percent, respectively.

[12] = ATPase induced by K^+ monazomycin

## CNc1ccc2oc(CC3OC4(CCC3C)OC(C(C)C(=O)c3cc(Cl)c[nH]3)C(C)CC4C)nc2c1C(=O)[O-].CNc1ccc2oc(CC3OC4(CCC3C)OC(C(C)C(=O)c3cc(Cl)c[nH]3)C(C)CC4C)nc2c1C(=O)[O-].[Mg+2] (stereo not drawn) [4-chloro-A-23187 (Mg complex)]
[1]
  LD50: 29.8 mg/kg × 1

## CNc1c(Br)cc2oc(CC3OC4(CCC3C)OC(C(C)C(=O)c3[nH]c(Br)c(Br)c3Br)C(C)CC4C)nc2c1C(=O)O (stereo not drawn) [6-bromo-5-(methylamino)-2-[[3β,9α,11β-trimethyl-8-[1α-methyl-2-oxo-2-(3,4,5-tribromo-1H-pyrrol-2-yl)ethyl]-1,7-dioxaspiro[5.5]undec-2β-yl]methyl]-4-benzoxazolecarboxylic acid]
[2]
  Bioassay: 585 µg/mL

## CNc1ccc2oc(CC3OC4(CCC3C)OC(C(C)C(=O)c3ccc[nH]3)C(C)CC4C)nc2c1C(=O)O (stereo not drawn) [A-23187 (free acid), reference compound]
[3]; ATPase induced by CaCl2
  half effective concentration (Ic 50): 0.5 µg/mL
[3]; [12]
  half effective concentration (Ic 50): 0.5 µg/mL
[2]
  Bioassay: 1060 µg/mL
[4]
  LD50: 5.8 mg/kg
[5]
  induction of acrosome reaction (in words): induces the acrosome reaction
[6]
  Motility Index: 4
[7]; [Mg^++ ]/[Ca^++ ] 0
  Ca^++ Influx: 3.5 nmole Ca^++ min × mg protein
[7]; [Mg^++ ]/[Ca^++ ] 5
  Ca^++ Influx: 2.0 nmole Ca^++ min × mg protein
[7]; [Mg^++ ]/[Ca^++ ] 10
  Ca^++ Influx: 1.2 nmole Ca^++ min × mg protein
[7]; [Mg^++ ]/[Ca^++ ] 20
  Ca^++ Influx: 0.5 nmole Ca^++ min × mg protein
[8]
  activation of sperm motility (in words): activates the motility
[9]
  selectivity for transport of divalent over monovalent cations (in words): substantially selective for the transport of divalent over monovalent cations; also recorded: not complete
[10]
  Time Until Acrosome Reaction: 30 min

## CNc1c(Br)cc2oc(CC3OC4(CCC3C)OC(C(C)C(=O)c3ccc[nH]3)C(C)CC4C)nc2c1C(=O)O (stereo not drawn) [4-bromo-A-23187 (free acid), 6-bromo(or chloro)-5-(methylamino)-2-[[3β,9α,-11β-trimethyl-8-[1α-methyl-2-oxo-2-(1H-pyrrol-2-yl)ethyl]-1,7-dioxaspiro[5.5]undec-2β-yl]-methyl]-4-benzoxazolecarboxylic acid]
[3]; ATPase induced by CaCl2
  half effective concentration (Ic 50): 0.9 µg/mL
[3]; [12]
  half effective concentration (Ic 50): 0.3 µg/mL
[2]
  Bioassay: 835 µg/mL
[4]
  LD50: 11.9 mg/kg
[11]; Cavia porcellus, read-out: mean increase in contractile tension, percentage of the maximal contractile tension elicited by norepinephrine (10^-4 M)
  activation at 10 µM: 48%
[6]
  Motility Index: 5
[7]; [Mg^++ ]/[Ca^++ ] 0
  Ca^++ Influx: 3.4 nmole Ca^++ min × mg protein
[7]; [Mg^++ ]/[Ca^++ ] 20
  Ca^++ Influx: 3.4 nmole Ca^++ min × mg protein
[7]; [Mg^++ ]/[Ca^++ ] 40
  Ca^++ Influx: 3.4 nmole Ca^++ min × mg protein
[7]; [Mg^++ ]/[Ca^++ ] 80
  Ca^++ Influx: 0.5 nmole Ca^++ min × mg protein
[7]; compared with comparable dosage of A-23187
  effectiveness of Mg^++ in inhibiting the induced influx of Ca^++ (in words): much less effective
[10]
  Time Until Acrosome Reaction: 30 min

## CNc1c(Cl)cc2oc(CC3OC4(CCC3C)OC(C(C)C(=O)c3ccc[nH]3)C(C)CC4C)nc2c1C(=O)O (stereo not drawn) [4-chloro-A-23187 (free acid), 6-bromo(or chloro)-5-(methylamino)-2-[[3β,9α,-11β-trimethyl-8-[1α-methyl-2-oxo-2-(1H-pyrrol-2-yl)ethyl]-1,7-dioxaspiro[5.5]undec-2β-yl]-methyl]-4-benzoxazolecarboxylic acid]
[3]; ATPase induced by CaCl2
  half effective concentration (Ic 50): 10 µg/mL
[3]; [12]
  half effective concentration (Ic 50): 0.2 µg/mL
[2]
  Bioassay: 298 µg/mL
[4]
  LD50: 10.5 mg/kg

## CNc1ccc2oc(CC3OC4(CCC3C)OC(C(C)C(=O)c3cc(Br)c[nH]3)C(C)CC4C)nc2c1C(=O)[O-].CNc1ccc2oc(CC3OC4(CCC3C)OC(C(C)C(=O)c3cc(Br)c[nH]3)C(C)CC4C)nc2c1C(=O)[O-].[Mg+2] (stereo not drawn) [4-bromo-A-23187 (Mg complex)]
[1]
  LD50: 18.75 mg/kg × 1
[11]
  mean increase in contractile tension, percentage of the maximal contractile tension elicited by norepinephrine (10^-4 M): 59%

## CNc1c(Br)cc2oc(CC3OC4(CCC3C)OC(C(C)C(=O)c3cc(Br)c[nH]3)C(C)CC4C)nc2c1C(=O)O (stereo not drawn) [4,23-dibromo-A-23187 (free acid), 6-bromo-5-(methylamino)-2-[[3β,9α,11β-trimethyl-8-[1α-methyl-2-oxo-2-(4-bromo-1H-pyrrol-2-yl)ethyl]-1,7-dioxaspiro[5.5]undec-2β-yl]methyl]-4-benzoxazolecarboxylic acid]
[3]; ATPase induced by CaCl2
  half effective concentration (Ic 50): 0.9 µg/mL
[3]; [12]
  half effective concentration (Ic 50): 0.5 µg/mL
[2]
  Bioassay: 940 µg/mL
